Measured values from patent publication US20230407243A1, “GENETIC PLATFORM TO INVESTIGATE THE FUNCTIONS OF BACTERIAL DRUG EFFLUX PUMPS” (priority 2022, published 2023).
Read-outs that look alike come from different tables or passages of the source.

Key:
Type in all cases: cell-based, Escherichia coli
EKO-35-Pore = assay: MIC susceptibility profiling, porinated strain; conditions: Escherichia coli, technical duplicate
Description: (§1) For genomic integration of the pore, the fhuA ΔC/Δ4L gene and the adjacent gentamicin resistance cassette were amplified using a high-fidelity polymerase and the fhuA_40_Up/gImS_3680_Low primers (Table 4). Integration of the pore gene was performed as described above. The pore gene was introduced into the intergenic region between the glmS and pstS genes, with gene expression under the control of a constitutive promoter (Kearse, M. et al., 2012). Genomic integrations were verified using PCR (Primers: pstS_520_Up/glmS_3680_Low, Table 4). Successful integrations were transformed with pCP20 to remove the gentamicin resistance cassette as previously described. Activity of the pore was confirmed through susceptibility testing with the large antibiotic vancomycin prior to phenotypic profiling and further susceptibility testing.
(§2) Single colonies were used to inoculate 3 mL of LB followed by incubation at 37° C. for 18 h with aeration at 220 rpm. The bacterial cells were harvested by centrifugation and resuspended in phosphate buffered saline (PBS) ([pH 7.4], 137 mM NaCl (Bioshop), 2.7 mM KCl (Bioshop), 10 mM Na2PO4 (Bioshop) and 1.8 mM K2PO4) to an OD600 nm˜1.0, followed by 1/2000 dilution into MHB II.
(§3) To a 384-well microtiter plate (Corning, untreated polystyrene), 500 nL of compound was dispensed, in duplicate, and serially titrated 2-fold using an Echo 550 acoustic liquid dispenser (Labcyte Inc.). […] As a solvent control, 500 nL of DMSO was applied to wells that contained no compound. Using a multichannel pipette, 50 μL of the prepared bacterial inoculum was applied to each well. To enable background correction post-incubation, the OD600 nm was measured (Biotek Synergy Neo2 microplate reader) prior to incubation. The plates were incubated at 37° C. with aeration at 900 rpm for 18 h. The plates were equilibrated to room temperature and the OD600 nm measured using a BioTek Synergy Neo2 microplate reader. Data was analyzed in both Prism (GraphPad, Version 9.2.0) and Microsoft Excel (Version 16.53). Raw data were input into Microsoft Excel and the pre-incubation OD600 nm measurements were subtracted from the post-incubation OD600 nm measurements. These corrected measurements were input into Prism 9 as a grouped analysis. […] All other MIC values were adjusted accordingly and visualized using the single-color scale grouped heat map function. Identification of compound chemical properties was achieved using DataWarrior (Version 5.5.0). Using PubChem, the SMILES chemical notation for each compound was obtained and compiled in Microsoft Excel. The resulting spreadsheet was input into DataWarrior and properties were calculated from the compound chemical structures.

E. coli EKO-35 = assay: microbe, parasite or virus in culture; conditions: Escherichia coli, EKO35, technical duplicate
Description: as §2, §3

[1] = test system: wild-type E. coli K-12 str. BW25113; assay: microbe, parasite or virus in culture; conditions: Escherichia coli, BW25113, technical duplicate
Description: as §2, §3

E. coli ΔtolC = assay: microbe, parasite or virus in culture
Description: as §2, §3

ΔtolC-Pore = assay: microbe, parasite or virus in culture
Description: as §1, §2, §3

wild-type (WT) K-12-Pore = assay: microbe, parasite or virus in culture; conditions: Escherichia coli, technical duplicate
Description: as §1, §2, §3

EKO-35 araC::acrB = assay: MIC susceptibility profiling, efflux platform; conditions: Escherichia coli; Table 13A; non-porinated; technical duplicate; read-out: Minimum Inhibitory Concentration, EKO-35 araC::acrB
Description: as §2, §3

EKO-35 araC::acrEF = assay: MIC susceptibility profiling, efflux platform; conditions: Escherichia coli; Table 13A; non-porinated; technical duplicate; read-out: Minimum Inhibitory Concentration, EKO-35 araC::acrEF
Description: as §2, §3

[2] = test system: EKO-35 araC::mexCD (MexCD from P. aeruginosa); assay: MIC susceptibility profiling, efflux platform; conditions: Table 13B; non-porinated; technical duplicate; read-out: Minimum Inhibitory Concentration, EKO-35 araC::mexCD
Description: as §2, §3

[3] = test system: EKO-35 araC::acrBD408A Pore; assay: MIC susceptibility profiling, porinated efflux platform; conditions: Escherichia coli; EKO-35 araC::acrBD408A Pore; technical duplicate; read-out: Minimum inhibitory concentration
Description: as §1, §2, §3

EKO-35 araC::acrD Pore = assay: as above; conditions: Escherichia coli; Table 14A; porinated; technical duplicate; read-out: Minimum inhibitory concentration, EKO-35 araC::acrD Pore
Description: as §1, §2, §3

EKO-35 araC::mdtBC Pore = assay: as above; conditions: Escherichia coli; EKO-35 araC::mdtBC Pore; technical duplicate; read-out: Minimum inhibitory concentration
Description: as §1, §2, §3

EKO-35 araC::macAB Pore = assay: as above; conditions: Escherichia coli; EKO-35 araC::macAB Pore; technical duplicate; read-out: Minimum inhibitory concentration
Description: as §1, §2, §3

EKO-35 araC::mdtEF Pore = assay: as above; conditions: Escherichia coli; Table 14A; porinated; technical duplicate; read-out: Minimum inhibitory concentration, EKO-35 araC::mdtEF Pore
Description: as §1, §2, §3

EKO-35 araC::acrB Pore = assay: as above; conditions: Escherichia coli; Table 14A; porinated; technical duplicate; read-out: Minimum inhibitory concentration, EKO-35 araC::acrB Pore
Description: as §1, §2, §3

EKO-35 araC::emrKY Pore = assay: as above; conditions: Escherichia coli; EKO-35 araC::emrKY Pore; technical duplicate; read-out: Minimum inhibitory concentration
Description: as §1, §2, §3

EKO-35 araC::acrEF Pore = assay: as above; conditions: Escherichia coli; Table 14A; porinated; technical duplicate; read-out: Minimum inhibitory concentration, EKO-35 araC::acrEF Pore
Description: as §1, §2, §3

## O=C(O)c1cn(C2CC2)c2cc(N3CCNCC3)c(F)cc2c1=O [ciprofloxacin]
EKO-35-Pore; Table 10, with pore, read-out: Minimum inhibitory concentration (MIC), Pore EKO-35
  MIC: 2 ng/mL
EKO-35-Pore; Table 14A, porinated, read-out: Minimum inhibitory concentration, EKO-35-Pore
  MIC: 2 ng/mL
E. coli EKO-35; Table 10, without pore, read-out: Minimum inhibitory concentration (MIC), EKO-35
  MIC: 5 ng/mL
E. coli EKO-35; Table 13A, non-porinated, read-out: Minimum Inhibitory Concentration, EKO-35
  MIC: 5 ng/mL
[1]; Table 10, without pore, read-out: Minimum inhibitory concentration (MIC), K-12
  MIC: 10 ng/mL
[1]; Table 13A, non-porinated, read-out: Minimum Inhibitory Concentration, K-12
  MIC: 10 ng/mL
E. coli ΔtolC; Escherichia coli, 18 h, read-out: Minimum Inhibitory Concentration, ΔtolC
  MIC: 5 ng/mL
E. coli ΔtolC; Table 10, without pore, technical duplicate
  Minimum inhibitory concentration (MIC), ΔtolC: 5 ng/mL
ΔtolC-Pore; Escherichia coli, 18 h, read-out: Minimum inhibitory concentration, ΔtolC-Pore
  MIC: 2 ng/mL
ΔtolC-Pore; Table 10, with pore, technical duplicate
  Minimum inhibitory concentration (MIC), Pore ΔtolC: 2 ng/mL
wild-type (WT) K-12-Pore; Table 10, with pore, read-out: Minimum inhibitory concentration (MIC), Pore K-12
  MIC: 5 ng/mL
wild-type (WT) K-12-Pore; Table 14A, porinated, read-out: Minimum inhibitory concentration, K-12 (WT)-Pore
  MIC: 5 ng/mL
EKO-35 araC::acrB
  MIC: 20 ng/mL
EKO-35 araC::acrEF
  MIC: 20 ng/mL
[2]
  MIC: 10 ng/mL
[3]
  MIC: 2 ng/mL
EKO-35 araC::acrD Pore
  MIC: 2 ng/mL
EKO-35 araC::mdtBC Pore
  MIC: 2 ng/mL
EKO-35 araC::macAB Pore
  MIC: 2 ng/mL
EKO-35 araC::mdtEF Pore
  MIC: 2 ng/mL
EKO-35 araC::acrB Pore
  MIC: 9 ng/mL
EKO-35 araC::emrKY Pore
  MIC: 2 ng/mL
EKO-35 araC::acrEF Pore
  MIC: 10 ng/mL
